From patent US20110046228A1 (priority 2009, published 2011)
“And” between values parts separate entries of the source, which are not always exact repeats. Equal entries are not always repeated. Where two headings read alike, the source gives them in different places.

Experiments:
[1] = clinical; conditions: both, human, plasma, oral, 0.6 mg; for AUC(0-t): AUC0-t; for AUC(0-inf): AUC0-∞; for CL/F: Weight-Adjusted CL/F
Protocol: This study is an open-label, non-randomized, single-center, one-sequence, two-period drug interaction study conducted in healthy male and female volunteers. Twenty-four (24) non-smoking, non-obese adult volunteers will be enrolled. All subjects will be dosed and studied as a single cohort, with each subject receiving the same treatment in a non-randomized fashion. As described below, a single dose of colchicine, 0.6 mg, will be administered alone on Day 1, and then co-administered with the grapefruit juice on Day 18. Grapefruit juice will be administered for 4 consecutive days (1×240 mL twice daily Days 15-17 and Day 18 (PM) alone and co-administered with a single 0.6 mg colchicine tablet in the morning on Day 18 (AM) (1×240 mL) beginning on the morning of Day 15, with the last 240 mL grapefruit juice dose administered in the evening of Day 18. A 14-day washout period will be completed after the first colchicine dose on Day 1 and prior to the administration of the first grapefruit juice dose on Day 15.
Grapefruit juice ([…] ® brand) will be purchased and stored according to the labeled instructions. Subjects in the study will consume 240 mL (8 fluid ounces) of juice every 12 hours for 8 doses (4 day regimen) to ensure the maximum inhibitory effect.
Following a screening period of up to 28 days, 24 healthy male and female volunteers will be enrolled. Subjects will be confined to the study unit for approximately 1.5 days on two separate occasions starting at least 10 hours prior to dosing on the evening of Day 1 and Day 17 until 24 hours following study drug administration on Day 1 and Day 18. In addition to confinement, study subjects will return to the clinical study site for the collection of blood samples 36, 48, 72, and 96 hours post dosing during both colchicine pharmacokinetic sampling periods. Total study participation, exclusive of up to 28 days of screening, will be approximately 22 days, during which subjects will be confined on two occasions for a total confinement of approximately 3 days.
All subjects will receive a single 0.6 mg dose of colchicine on Day 1, followed by a 14-day washout period in which subjects will not be confined at study site. At discharge on Day 2 (at approximately 8 AM), study subjects will be instructed to return to the clinical site on Days 15 through 17 in the mornings and evenings to consume (1×240 mL, i.e., 8 fluid ounces) grapefruit juice twice daily on Days 15 through 17 in a ‘directly-observed’ fashion. On the evening of Day 17, study participants will return to the clinic for their final study confinement period. In the morning of Day 18, study subjects will receive a single 0.6 mg colchicine dose with a 240 mL serving of grapefruit juice. In the evening of Day 18, study subjects will receive their final 240 mL serving of grapefruit juice administered alone.
A minimum fasting period of 10 hours (overnight fast) will be in effect before administration of colchicine on Day 1 and prior to the administration of colchicine and grapefruit juice on Day 18. Fasting will continue for 4 hours post-dosing on Days 1 and 18 after the morning administration. Grapefruit juice doses administered on Days 15-17 and Day 18 (PM) will not be in a fasted state. For colchicine, medication must be swallowed whole, not chewed. For grapefruit juice, the entire serving must be consumed. For all treatments, the subjects will not be permitted to lie down for the first 4 hours following administration of drug to ensure proper stomach emptying. On both of the confined study days after the morning administrations (Day 1 and Day 18), water will be allowed ad libitum beginning 2 hours post-dose. Intake of all study medications will be supervised. Standardized meals will be served according to a pre-determined schedule throughout the study.
Serial blood samples will be collected by individual venipuncture up to 96 hours following drug administration on Day 1 and Day 18.

[2] = set-up: AUC0-t, Geometric Mean: unit not given beside the values
[3] = system: individuals with Behcet's syndrome (or disease); conditions: adjusted to bodyweight, cited from earlier work
[4] = with a single glass (200-250 mL) of grapefruit juice; cited from earlier work
[5] = Least Squares Mean, Non-Transformed Data, single 0.6 mg colchicine dose
[6] = Mean, mean of N = 21, single 0.6 mg colchicine
[7] = Median, median of N = 21, single 0.6 mg colchicine
[8] = Geometric Mean, single 0.6 mg colchicine dose, N = 21, based on least squares means of ln-transformed values
[9] = individual subjects, single 0.6 mg colchicine, plasma, A Day 1, A + B Day 18
[10] = maximum of N = 21, single 0.6 mg colchicine, plasma
[11] = mean of N = 21, single 0.6 mg colchicine, plasma
[12] = median of N = 21, single 0.6 mg colchicine, plasma
[13] = minimum of N = 21, single 0.6 mg colchicine, plasma
[14] = single 0.6 mg colchicine dose, plasma

COc1cc2c(c(OC)c1OC)-c1ccc(OC)c(=O)cc1[C@@H](NC(C)=O)CC2 [Treatment A, (−)-N-[(7S, 12aS)-1,2,3,10-tetramethoxy-9-oxo-5,6,7,9-tetrahydrobenzo[a]heptalen-7-yl]-acetamide]
AUC(0-t) [1, 5]: 9.33 ng·h/mL
AUC(0-t) [1, 6]: 9.33 ng·h/mL
AUC(0-t) [1, 7]: 8.84 ng·h/mL
AUC(0-inf) [1, 8]: 10.5 ng·h/mL
AUC(0-inf) [1, 5]: 11.1 ng·h/mL
AUC(0-inf) [1, 6]: 11.1 ng·h/mL
AUC(0-inf) [1, 7]: 10.4 ng·h/mL
Cmax [1, 8]: 2.07 ng/mL
Cmax [1, 5]: 2.17 ng/mL
Cmax [1, 6]: 2.17 ng/mL
Cmax [1, 7]: 2.06 ng/mL
Tmax [1, 5]: 1.24 h
Tmax [1, 6]: 1.24 h
Tmax [1, 7]: 1 h
CL/F [1, 5]: 12.3 mL/min/kg
CL/F [1, 6]: 12.3 mL/min/kg
CL/F [1, 7]: 11.3 mL/min/kg
half-life ([1]; t1/2, Least Squares Mean, Non-Transformed Data, single 0.6 mg colchicine dose): 278 min
half-life ([1]; t1/2, Mean, mean of N = 21, single 0.6 mg colchicine): 278 min
AUC0-∞ [2, 9]: 10.8336 ng·h/mL and 14.15474 ng·h/mL and 9.5485 ng·h/mL and 13.07636 ng·h/mL and 20.67702 ng·h/mL and 9.19604 ng·h/mL and 7.56206 ng·h/mL and 10.95321 ng·h/mL and 12.50531 ng·h/mL and 8.2513 ng·h/mL and 7.55929 ng·h/mL and 21.66786 ng·h/mL and 8.57677 ng·h/mL and 10.79516 ng·h/mL and 4.54846 ng·h/mL and 9.55313 ng·h/mL
CL/F [2, 9]: 55.38 L/h and 42.39 L/h and 62.84 L/h and 57.10 L/h and 45.88 L/h and 29.02 L/h and 65.25 L/h and 79.34 L/h and 54.78 L/h and 57.58 L/h and 51.63 L/h and 57.64 L/h and 47.98 L/h and 72.72 L/h and 79.37 L/h and 27.69 L/h and 58.47 L/h and 69.96 L/h and 55.58 L/h and 131.91 L/h and 62.81 L/h
Kel [2, 9]: 0.1619 h⁻¹ and 0.2194 h⁻¹ and 0.1653 h⁻¹ and 0.1160 h⁻¹ and 0.1881 h⁻¹ and 0.0484 h⁻¹ and 0.2291 h⁻¹ and 0.1859 h⁻¹ and 0.1655 h⁻¹ and 0.1563 h⁻¹ and 0.1843 h⁻¹ and 0.1946 h⁻¹ and 0.1506 h⁻¹ and 0.1355 h⁻¹ and 0.2178 h⁻¹ and 0.0847 h⁻¹ and 0.1512 h⁻¹ and 0.1866 h⁻¹ and 0.1851 h⁻¹ and 0.2814 h⁻¹ and 0.1925 h⁻¹
Tmax [2, 9]: 1.00 h and 2.00 h
Varea/F [2, 9]: 342.07 L and 193.19 L and 380.20 L and 492.22 L and 243.91 L and 599.39 L and 284.79 L and 426.86 L and 331.07 L and 368.37 L and 280.11 L and 296.22 L and 318.56 L and 536.77 L and 364.36 L and 327.00 L and 386.70 L and 374.82 L and 300.24 L and 468.69 L and 326.22 L
t1/2 [2, 9]: 4.28 h and 3.16 h and 4.19 h and 5.98 h and 3.68 h and 14.32 h and 3.03 h and 3.73 h and 4.43 h and 3.76 h and 3.56 h and 4.60 h and 5.12 h and 3.18 h and 8.19 h and 4.58 h and 3.71 h and 3.74 h and 2.46 h and 3.60 h
AUC0-t, Max [2, 10]: 18.3968 ng·h/mL
AUC0-∞, Max [2, 10]: 21.66786 ng·h/mL
CL/F, Max [2, 10]: 131.91 L/h
Cmax, Max [2, 10]: 3.758 ng/mL
Kel, Max [2, 10]: 0.2814 h⁻¹
Tmax, Max [2, 10]: 2.00 h
Varea/F, Max [2, 10]: 599.39 L
t1/2, Max [2, 10]: 14.32 h
CL/F, Mean [2, 11]: 60.25 L/h
Kel, Mean [2, 11]: 0.1714 h⁻¹
Varea/F, Mean [2, 11]: 363.89 L
CL/F, Median [2, 12]: 57.58 L/h
Kel, Median [2, 12]: 0.1843 h⁻¹
Varea/F, Median [2, 12]: 342.07 L
t1/2, Median [2, 12]: 3.76 h
AUC0-t, Min [2, 13]: 3.83287 ng·h/mL
AUC0-∞, Min [2, 13]: 4.54846 ng·h/mL
CL/F, Min [2, 13]: 27.69 L/h
Cmax, Min [2, 13]: 845.2 pg/mL
Kel, Min [2, 13]: 0.0484 h⁻¹
Tmax, Min [2, 13]: 1.00 h
Varea/F, Min [2, 13]: 193.19 L
t1/2, Min [2, 13]: 2.46 h
Bioequivalence of oral colchicine with grapefruit juice vs in the absence of grapefruit juice ([2]; recommended maximum daily amount of grapefruit juice (about 16 fluid ounces daily)): bioequivalent
Kel, Least Squares Mean, Non-Transformed Data [2, 14]: 0.1714
Varea/F, Least Squares Mean, Non-Transformed Data [2, 14]: 363.89
AUC0-t, Geometric Mean ([2]; single 0.6 mg colchicine dose, plasma, N = 21, based on least squares means of ln-transformed values): 8806.78
Clinical effect in Behcet's disease ([3]; 1-2 mg daily): reduced the frequency of genital ulcers, erythema nodosum, and arthritis among women and reduced the occurrence of arthritis among men
Clinical effect in Behcet's syndrome ([3]; 1-2.4 mg daily): reduced the frequency of genital ulcers, erythema nodosum, and arthritis among women and reduced the occurrence of arthritis among men

CCOC(=O)C1=C(C)NC(C)=C(C(=O)OC)C1c1cccc(Cl)c1Cl (stereo not shown) [felodipine]
Change in AUC and Cmax of orally administered felodipine [4]: several-fold increase
